According to US10065948B2, “Histone deacetylase inhibitors and compositions and methods of use thereof” (CHDI Foundation, Inc., priority 2014, dated 2018):

Columns and labels:
[1] = test system: cellular histone deacetylase enzymatic activity in Jurkat E6-1 cells; test: Inhibition of cellular HDAC activity, Boc-Lys(Tfa)-AMC substrate (Cell Lys-TFA); type: cell-based
Description: The potency of the compounds is quantified by measuring the cellular histone deacetylase enzymatic activity using the fluorogenic substrate, Boc-Lys(Tfa)-AMC. After penetration in Jurkat E6-1 cells, the substrate is deacetylated to Boc-Lys-AMC. After cell lysis and cleavage by trypsin, the fluorophore AMC is released from the deacetylated substrate only. The fluorescence of the sample is directly related to the histone deacetylase activity in the sample.
Jurkat E6.1 cells are cultured according to standard cell culture protocols in Jurkat E6.1 Growth Media (RPMI without phenol red, 10% FBS, 10 mM HEPES, and 1 mM Sodium Pyruvate). Jurkat E6.1 cells are counted using a Coulter Counter and resuspended in Jurkat E6.1 growth media at a concentration of 75,000 cells/35 μL. 35 μL or 75,000 cells is seeded into Greiner microtitre assay plates. The plates are then incubated at 37° C. and 5% CO2 while other assay components are being prepared.
Stocks of 70 μL aliquots of the 10 mM compound in DMSO are prepared and stored at −20° C. From one stock aliquot of each compound to be tested and the reference compound, a 16-point serial dilution is prepared according to Table 1 using a 125 μL 16-channel Matrix multi-channel pipette.
2 μL (200×) of each diluted solution and each control (full activity: 100% DMSO alone or full inhibition 1 mM) is stamped into V-bottom polypropylene 384-well compound plates using either the Bravo, Janus, or 12.5 μL 16-channel Matrix multi-channel pipette. Each well with the 200× compound solution is diluted 1:20 by the addition of 38 μL Jurkat assay buffer+DMSO (9.5% DMSO, RPMI without phenol red, 0.09% FBS, 9 mM Hepes, and 0.9 mM Sodium Pyruvate equilibrated to room temperature)
5× (500 μM) substrate is prepared just prior to the addition to the assay. The 5× substrate is prepared by diluting a 100 mM Boc-Lys(Tfa)-AMC in DMSO solution 1:200 by adding it drop-wise to Jurkat assay medium (RPMI without phenol red, 0.1% FBS, 10 mM Hepes, and 1 mM Sodium Pyruvate equilibrated to 37° C.) while vortexing at slow speed to prevent precipitation.
10 mL of 3× lysis buffer is prepared with 8.8 ml of 3× stock lysis buffer (50 mM Tris-HCl, pH 8.0, 137 mM NaCl, 2.7 mM KCl, 1 mM MgCl2, 1% Nonidet P40 Substitute equilibrated to room temperature) and 1.2 mL of 3 mg/mL Trypsin equilibrated to room temperature.
5 μL of each solution of 1:20 diluted compound from above is transferred to the Greiner microtitre assay plates with 75,000 cells/well using the Bravo. Cells are then incubated for 2 hours at 37° C. and 5% CO2. […] The cells are then incubated for 3 hours at 37° C. and 5% CO2. Next, 25 μL of 3× lysis buffer is added to each well using either the 125 μL 16 channel pipette or the Bravo. The assay plate is then incubated overnight (15-16 hours) at 37° C. and 5% CO2. The following day, the plates are shaken on an orbital shaker for 1 minute at 900 rpm. Finally the top read fluorescence (Excitation: 355 nm, Emission: 460 nm) is measured using PerkinElmer EnVision.

[2] = test system: cellular histone deacetylase activity (Lys-Ac); test: Inhibition of cellular HDAC activity (Cell Lys-Ac); type: cell-based; details: Lys-Ac substrate
[3] = Homo sapiens, Jurkat E6.1, Lys-TFA substrate

IC50 ([1]; Lys-TFA substrate)	IC50 [2]	IC50 [1, 3]	SMILES
0.41 µM	> 50 µM	–	Cc1c(F)cccc1C1(C(=O)NO)CCc2nn(-c3ccccc3F)cc2C1 (single isomer, unassigned) [Example 33, E1-(abs)-5-(3-Fluoro-2-methylphenyl)-2-(2-fluorophenyl)-N-hydroxy-4,5,6,7-tetrahydro-2H-indazole-5-carboxamide]
26.7 µM	> 50 µM	–	Cc1c(F)cccc1C1(C(=O)NO)CCc2nn(-c3ccccc3F)cc2C1 (single isomer, unassigned) [Example 34, E2-(abs)-5-(3-fluoro-2-methylphenyl)-2-(2-fluorophenyl)-N-hydroxy-4,5,6,7-tetrahydro-2H-indazole-5-carboxamide]
0.086 µM	> 50 µM	–	Cc1ccccc1-n1ncc2c1CCC(C(=O)NO)(c1cccc(F)c1C)C2 (single isomer, unassigned) [Example 37, E1-(abs)-5-(3-Fluoro-2-methylphenyl)-N-hydroxy-1-(o-tolyl)-4,5,6,7-tetrahydro-1H-indazole-5-carboxamide]
11.2 µM	> 50 µM	–	Cc1ccccc1-n1ncc2c1CCC(C(=O)NO)(c1cccc(F)c1C)C2 (single isomer, unassigned) [Example 38, E2-(abs)-5-(3-fluoro-2-methylphenyl)-N-hydroxy-1-(o-tolyl)-4,5,6,7-tetrahydro-1H-indazole-5-carboxamide]
–	> 50 µM	> 50 µM	Cc1c(F)cccc1[C@@]1(C(=O)NO)CCc2nc(C3CC3)ncc21 (single isomer, unassigned) [Example 57]
–	> 50 µM	0.11 µM	Cc1c(F)cccc1C1(C(=O)NO)Cc2nc(-c3cccc(F)c3)sc2C1 (single isomer, unassigned) [Example 64, E1-(abs)-5-(3-Fluoro-2-methylphenyl)-2-(3-fluorophenyl)-N-hydroxy-5,6-dihydro-4H-cyclopenta[d]thiazole-5-carboxamide]
–	> 50 µM	–	Cc1c(F)cccc1C1(C(=O)NO)Cc2nc(-c3cccc(F)c3)sc2C1 (single isomer, unassigned) [Example 65, E2-(abs)-5-(3-fluoro-2-methylphenyl)-2-(3-fluorophenyl)-N-hydroxy-5,6-dihydro-4H-cyclopenta[d]thiazole-5-carboxamide]
–	> 50 µM	0.014 µM	Cc1ccccc1-n1ncc2c1C[C@](C(=O)NO)(c1cccc(F)c1C)C2 [Example 2, (S)-5-(3-Fluoro-2-methylphenyl)-N-hydroxy-1-(o-tolyl)-1,4,5,6-tetrahydrocyclopenta[c]pyrazole-5-carboxamide]
–	> 50 µM	0.103 µM	Cc1c(F)cccc1[C@]1(C(=O)NO)Cc2cnn(-c3ccc(Cl)cc3)c2C1 [Example 8, (S)-1-(4-Chlorophenyl)-5-(3-fluoro-2-methylphenyl)-N-hydroxy-1,4,5,6-tetrahydrocyclopenta[c]pyrazole-5-carboxamide]
–	> 50 µM	0.027 µM	Cc1c(F)cccc1[C@]1(C(=O)NO)Cc2cnn(-c3c(F)cccc3F)c2C1 [Example 11, (S)-1-(2,6-Difluorophenyl)-5-(3-fluoro-2-methylphenyl)-N-hydroxy-1,4,5,6-tetrahydrocyclopenta[c]pyrazole-5-carboxamide]
–	> 50 µM	0.011 µM	Cc1cc(F)ccc1-n1ncc2c1C[C@](C(=O)NO)(c1cccc(F)c1C)C2 [Example 22, (S)-5-(3-Fluoro-2-methylphenyl)-1-(4-fluoro-2-methylphenyl)-N-hydroxy-1,4,5,6-tetrahydrocyclopenta[c]pyrazole-5-carboxamide]
–	> 50 µM	0.134 µM	Cc1cc(F)ccc1-n1cc2c(n1)C[C@](C(=O)NO)(c1cccc(F)c1C)C2 [Example 23, (S)-5-(3-fluoro-2-methylphenyl)-2-(4-fluoro-2-methylphenyl)-N-hydroxy-2,4,5,6-tetrahydrocyclopenta[c]pyrazole-5-carboxamide]
–	> 50 µM	0.12 µM	Cc1c(F)cccc1[C@@]1(C(=O)NO)Cc2cnc(C3CC3)nc2C1 [Example 50, (R)-2-Cyclopropyl-6-(3-fluoro-2-methylphenyl)-N-hydroxy-6,7-dihydro-5H-cyclopenta[d]pyrimidine-6-carboxamide]
–	> 50 µM	1.4 µM	Cc1c(F)cccc1[C@@]1(C(=O)NO)CCc2nc(C3CC3)ncc21 [Example 51, (S)-2-cyclopropyl-5-(3-fluoro-2-methylphenyl)-N-hydroxy-6,7-dihydro-5H-cyclopenta[d]pyrimidine-5-carboxamide]
–	> 50 µM	0.21 µM	Cc1c(F)cccc1[C@]1(C(=O)NO)Cc2cnc(C3CC3)nc2C1 [Example 52, (S)-2-Cyclopropyl-6-(3-fluoro-2-methylphenyl)-N-hydroxy-6,7-dihydro-5H-cyclopenta[d]pyrimidine-6-carboxamide]
–	> 50 µM	0.32 µM	Cc1c(F)cccc1[C@]1(C(=O)NO)CCc2c1cnn2-c1ccccc1 [Example 54, (R)-4-(3-Fluoro-2-methylphenyl)-N-hydroxy-1-phenyl-1,4,5,6-tetrahydrocyclopenta[c]pyrazole-4-carboxamide]
–	> 50 µM	0.26 µM	Cc1c(F)cccc1[C@]1(C(=O)NO)Cc2cnc(-c3ccc(F)cc3)nc2C1 [Example 55, (S)-6-(3-Fluoro-2-methylphenyl)-2-(4-fluorophenyl)-N-hydroxy-6,7-dihydro-5H-cyclopenta[d]pyrimidine-6-carboxamide]
–	> 50 µM	0.2 µM	Cc1c(F)cccc1[C@]1(C(=O)NO)Cc2cnc(-c3cccnc3)nc2C1 [Example 60, (S)-6-(3-Fluoro-2-methylphenyl)-N-hydroxy-2-(pyridin-3-yl)-6,7-dihydro-5H-cyclopenta[d]pyrimidine-6-carboxamide]
–	> 50 µM	0.098 µM	Cc1c(F)cccc1[C@@]1(C(=O)NO)Cc2nc(-c3ccc(F)cc3)sc2C1 [Example 66, (R)-5-(3-Fluoro-2-methylphenyl)-2-(4-fluorophenyl)-N-hydroxy-5,6-dihydro-4H-cyclopenta[d]thiazole-5-carboxamide]
–	> 50 µM	0.29 µM	Cc1c(F)cccc1[C@]1(C(=O)NO)Cc2nc(-c3ccc(F)cc3)sc2C1 [Example 67, (S)-5-(3-fluoro-2-methylphenyl)-2-(4-fluorophenyl)-N-hydroxy-5,6-dihydro-4H-cyclopenta[d]thiazole-5-carboxamide]
–	> 50 µM	0.79 µM	Cc1c(F)cccc1[C@]1(C(=O)NO)CCc2nc(C3CC3)sc21 [Example 72, (S)-2-Cyclopropyl-6-(3-fluoro-2-methylphenyl)-N-hydroxy-5,6-dihydro-4H-cyclopenta[d]thiazole-6-carboxamide]
–	> 50 µM	0.045 µM	Cc1c(F)cccc1[C@]1(C(=O)NO)Cc2snc(-c3ccccc3)c2C1 [Example 80, E1-(abs)-5-(3-Fluoro-2-methylphenyl)-N-hydroxy-3-phenyl-5,6-dihydro-4H-cyclopenta[d]isothiazole-5-carboxamide]
–	> 50 µM	5.6 µM	Cc1c(F)cccc1[C@@]1(C(=O)NO)Cc2snc(-c3ccccc3)c2C1 [Example 81, E2-(abs)-5-(3-Fluoro-2-methylphenyl)-N-hydroxy-3-phenyl-5,6-dihydro-4H-cyclopenta[d]isothiazole-5-carboxamide]
–	> 50 µM	45.7 µM	O=C(NO)[C@]1(c2ccccc2)CCc2ccccc21 [Example 87, E1-(abs)-N-Hydroxy-1-phenyl-2,3-dihydro-1H-indene-1-carboxamide]

SMILES	IC50 ([1]; Lys-TFA substrate)	IC50 [2]	IC50 [1, 3]
Cc1c(F)cccc1C1(C(=O)NO)CCc2nn(CC(F)(F)F)cc2C1 (stereo not shown) [Example 35, 5-(3-Fluoro-2-methylphenyl)-N-hydroxy-1-(2,2,2-trifluoroethyl)-4,5,6,7-tetrahydro-1H-indazole-5-carboxamide and 5-(3-fluoro-2-methylphenyl)-N-hydroxy-2-(2,2,2-trifluoroethyl)-4,5,6,7-tetrahydro-2H-indazole-5-carboxamide]	0.77 µM	> 50 µM	–
